Laboratory results as given in the NIST ThermoML archive (doi:10.1016/j.jct.2006.05.008).
Numbers after ± are expanded uncertainties.

Assay: molar heat capacity at constant pressure
Conditions: 101.33 kPa, Crystal

SMILES: CCn1cc[n+](C)c1.[Br-] [1-ethyl-3-methylimidazolium bromide]
- molar heat capacity at constant pressure (5 K, Small (less than 1 g) adiabatic calorimetry): 0.322 ± 0.028 J/K/mol
- molar heat capacity at constant pressure (5.194 K): 0.3611 ± 0.053 J/K/mol
- molar heat capacity at constant pressure (5.579 K): 0.4605 ± 0.057 J/K/mol
- molar heat capacity at constant pressure (5.885 K): 0.5503 ± 0.059 J/K/mol
- molar heat capacity at constant pressure (6.228 K): 0.6668 ± 0.063 J/K/mol
- molar heat capacity at constant pressure (6.606 K): 0.8178 ± 0.069 J/K/mol
- molar heat capacity at constant pressure (6.985 K): 0.9897 ± 0.075 J/K/mol
- molar heat capacity at constant pressure (7.365 K): 1.183 ± 0.076 J/K/mol
- molar heat capacity at constant pressure (7.747 K): 1.406 ± 0.088 J/K/mol
- molar heat capacity at constant pressure (8.13 K): 1.655 ± 0.096 J/K/mol
- molar heat capacity at constant pressure (8.515 K): 1.937 ± 0.11 J/K/mol
- molar heat capacity at constant pressure (8.9 K): 2.249 ± 0.12 J/K/mol
- molar heat capacity at constant pressure (9.286 K): 2.597 ± 0.13 J/K/mol
- molar heat capacity at constant pressure (9.673 K): 2.979 ± 0.14 J/K/mol
- molar heat capacity at constant pressure (10 K, Small (less than 1 g) adiabatic calorimetry): 3.336 ± 0.076 J/K/mol
- molar heat capacity at constant pressure (10.06 K): 3.401 ± 0.15 J/K/mol
- molar heat capacity at constant pressure (10.55 K): 3.999 ± 0.17 J/K/mol
- molar heat capacity at constant pressure (11.14 K): 4.807 ± 0.19 J/K/mol
- molar heat capacity at constant pressure (11.73 K): 5.74 ± 0.22 J/K/mol
- molar heat capacity at constant pressure (12.32 K): 6.81 ± 0.25 J/K/mol
- molar heat capacity at constant pressure (12.91 K): 7.996 ± 0.28 J/K/mol
- molar heat capacity at constant pressure (13.54 K): 8.107 ± 0.28 J/K/mol
- molar heat capacity at constant pressure (14.21 K): 8.109 ± 0.27 J/K/mol
- molar heat capacity at constant pressure (14.85 K): 8.978 ± 0.29 J/K/mol
- molar heat capacity at constant pressure (15 K, Small (less than 1 g) adiabatic calorimetry): 9.171 ± 0.15 J/K/mol
- molar heat capacity at constant pressure (15.58 K): 10.01 ± 0.32 J/K/mol
- molar heat capacity at constant pressure (16.41 K): 11.22 ± 0.34 J/K/mol
- molar heat capacity at constant pressure (17.25 K): 12.49 ± 0.37 J/K/mol
- molar heat capacity at constant pressure (18.08 K): 13.77 ± 0.39 J/K/mol
- molar heat capacity at constant pressure (18.92 K): 15.08 ± 0.42 J/K/mol
- molar heat capacity at constant pressure (19.75 K): 16.41 ± 0.44 J/K/mol
- molar heat capacity at constant pressure (20 K, Small (less than 1 g) adiabatic calorimetry): 16.81 ± 0.22 J/K/mol
- molar heat capacity at constant pressure (20.88 K): 18.28 ± 0.47 J/K/mol
- molar heat capacity at constant pressure (22.31 K): 20.62 ± 0.5 J/K/mol
- molar heat capacity at constant pressure (23.74 K): 22.98 ± 0.52 J/K/mol
- molar heat capacity at constant pressure (25 K, Small (less than 1 g) adiabatic calorimetry): 25 ± 0.27 J/K/mol
- molar heat capacity at constant pressure (25.17 K): 25.34 ± 0.54 J/K/mol
- molar heat capacity at constant pressure (26.6 K): 27.65 ± 0.56 J/K/mol
- molar heat capacity at constant pressure (28.05 K): 30.01 ± 0.57 J/K/mol
- molar heat capacity at constant pressure (29.5 K): 32.33 ± 0.57 J/K/mol
- molar heat capacity at constant pressure (30 K, Small (less than 1 g) adiabatic calorimetry): 33.08 ± 0.27 J/K/mol
- molar heat capacity at constant pressure (30.94 K): 34.65 ± 0.55 J/K/mol
- molar heat capacity at constant pressure (32.4 K): 36.88 ± 0.57 J/K/mol
- molar heat capacity at constant pressure (33.85 K): 39.07 ± 0.59 J/K/mol
- molar heat capacity at constant pressure (35 K, Small (less than 1 g) adiabatic calorimetry): 40.68 ± 0.31 J/K/mol
- molar heat capacity at constant pressure (35.31 K): 41.18 ± 0.61 J/K/mol
- molar heat capacity at constant pressure (36.76 K): 43.24 ± 0.63 J/K/mol
- molar heat capacity at constant pressure (38.22 K): 45.23 ± 0.65 J/K/mol
- molar heat capacity at constant pressure (39.68 K): 47.2 ± 0.67 J/K/mol
- molar heat capacity at constant pressure (40 K, Small (less than 1 g) adiabatic calorimetry): 47.53 ± 0.34 J/K/mol
- molar heat capacity at constant pressure (41.38 K): 49.4 ± 0.69 J/K/mol
- molar heat capacity at constant pressure (43.34 K): 51.87 ± 0.72 J/K/mol
- molar heat capacity at constant pressure (45 K, Small (less than 1 g) adiabatic calorimetry): 53.77 ± 0.37 J/K/mol
- molar heat capacity at constant pressure (45.31 K): 54.3 ± 0.74 J/K/mol
- molar heat capacity at constant pressure (47.28 K): 56.63 ± 0.77 J/K/mol
- molar heat capacity at constant pressure (49.24 K): 58.85 ± 0.79 J/K/mol
- molar heat capacity at constant pressure (50 K, Small (less than 1 g) adiabatic calorimetry): 59.49 ± 0.4 J/K/mol
- molar heat capacity at constant pressure (51.21 K): 60.97 ± 0.81 J/K/mol
- molar heat capacity at constant pressure (53.18 K): 63 ± 0.83 J/K/mol
- molar heat capacity at constant pressure (55.14 K): 65 ± 0.85 J/K/mol
- molar heat capacity at constant pressure (57.11 K): 66.93 ± 0.87 J/K/mol
- molar heat capacity at constant pressure (59.08 K): 68.82 ± 0.89 J/K/mol
- molar heat capacity at constant pressure (60 K, Small (less than 1 g) adiabatic calorimetry): 69.57 ± 0.45 J/K/mol
- molar heat capacity at constant pressure (61.05 K): 70.7 ± 0.91 J/K/mol
- molar heat capacity at constant pressure (63.03 K): 72.54 ± 0.92 J/K/mol
- molar heat capacity at constant pressure (65 K): 74.25 ± 0.94 J/K/mol
- molar heat capacity at constant pressure (66.98 K): 75.86 ± 0.96 J/K/mol
- molar heat capacity at constant pressure (68.96 K): 77.42 ± 0.97 J/K/mol
- molar heat capacity at constant pressure (70 K, Small (less than 1 g) adiabatic calorimetry): 78.03 ± 0.49 J/K/mol
- molar heat capacity at constant pressure (70.95 K): 78.97 ± 0.99 J/K/mol
- molar heat capacity at constant pressure (72.93 K): 80.48 ± 1 J/K/mol
- molar heat capacity at constant pressure (74.92 K): 82.06 ± 1 J/K/mol
- molar heat capacity at constant pressure (76.91 K): 83.6 ± 1 J/K/mol
- molar heat capacity at constant pressure (78.9 K): 85.15 ± 1.1 J/K/mol
- molar heat capacity at constant pressure (80 K, Small (less than 1 g) adiabatic calorimetry): 85.47 ± 0.5 J/K/mol
- molar heat capacity at constant pressure (80.24 K, Small (less than 1 g) adiabatic calorimetry): 85.68 ± 0.53 J/K/mol
- molar heat capacity at constant pressure (80.9 K): 86.6 ± 1.1 J/K/mol
- molar heat capacity at constant pressure (82.91 K): 87.82 ± 1.1 J/K/mol
- molar heat capacity at constant pressure (83.06 K, Small (less than 1 g) adiabatic calorimetry): 87.67 ± 0.54 J/K/mol
- molar heat capacity at constant pressure (85.79 K, Small (less than 1 g) adiabatic calorimetry): 89.36 ± 0.55 J/K/mol
- molar heat capacity at constant pressure (88.55 K, Small (less than 1 g) adiabatic calorimetry): 91.21 ± 0.56 J/K/mol
- molar heat capacity at constant pressure (90 K, Small (less than 1 g) adiabatic calorimetry): 92.12 ± 0.58 J/K/mol
- molar heat capacity at constant pressure (91.34 K, Small (less than 1 g) adiabatic calorimetry): 93.01 ± 0.57 J/K/mol
- molar heat capacity at constant pressure (94.15 K, Small (less than 1 g) adiabatic calorimetry): 94.8 ± 0.58 J/K/mol
- molar heat capacity at constant pressure (96.98 K, Small (less than 1 g) adiabatic calorimetry): 96.52 ± 0.59 J/K/mol
- molar heat capacity at constant pressure (99.83 K, Small (less than 1 g) adiabatic calorimetry): 98.18 ± 0.59 J/K/mol
- molar heat capacity at constant pressure (100 K, Small (less than 1 g) adiabatic calorimetry): 98.11 ± 0.58 J/K/mol
- molar heat capacity at constant pressure (102.69 K, Small (less than 1 g) adiabatic calorimetry): 99.88 ± 0.57 J/K/mol
- molar heat capacity at constant pressure (105.57 K, Small (less than 1 g) adiabatic calorimetry): 101.51 ± 0.61 J/K/mol
- molar heat capacity at constant pressure (108.46 K, Small (less than 1 g) adiabatic calorimetry): 103.1 ± 0.61 J/K/mol
- molar heat capacity at constant pressure (110 K, Small (less than 1 g) adiabatic calorimetry): 103.8 ± 0.58 J/K/mol
- molar heat capacity at constant pressure (111.37 K, Small (less than 1 g) adiabatic calorimetry): 104.69 ± 0.62 J/K/mol
- molar heat capacity at constant pressure (114.29 K, Small (less than 1 g) adiabatic calorimetry): 106.29 ± 0.62 J/K/mol
- molar heat capacity at constant pressure (117.22 K, Small (less than 1 g) adiabatic calorimetry): 107.83 ± 0.63 J/K/mol
- molar heat capacity at constant pressure (120 K, Small (less than 1 g) adiabatic calorimetry): 109.1 ± 0.67 J/K/mol
- molar heat capacity at constant pressure (120.16 K, Small (less than 1 g) adiabatic calorimetry): 109.35 ± 0.64 J/K/mol
- molar heat capacity at constant pressure (123.11 K, Small (less than 1 g) adiabatic calorimetry): 110.89 ± 0.64 J/K/mol
- molar heat capacity at constant pressure (126.08 K, Small (less than 1 g) adiabatic calorimetry): 112.42 ± 0.65 J/K/mol
- molar heat capacity at constant pressure (129.06 K, Small (less than 1 g) adiabatic calorimetry): 113.89 ± 0.66 J/K/mol
